Test results as given in paper PMC6379368, “Extracellular and intracellular small-molecule galectin-3 inhibitors” (Scientific Reports, 2019).
Where “and” joins values, the source holds several entries; their conditions need not be identical. Identical values can stand only once. Like-named read-outs stand apart in the source and are kept apart here. Where a SMILES comes first, the peptide text is derived from it. The star is where a group is joined. βNA = c1ccc2cc(N*)ccc2c1

Columns and labels:
[1] = molecular target: T1, galectin-3 (Homo sapiens, UniProt P17931); assay: GPN-induced galectin-3 accumulation (puncta) in JIMT-1 breast cancer cells; type: cell-based; set-up: In the intracellular assay, in contrast, only endogenous galectin was present; endogenous in cells; host or cells: JIMT-1 breast cancer cells
Experimental: The total number of galectin-3 puncta and nuclei in the microscopy images were quantified using the software ImageJ.
Cells were seeded in multi-well plates with sterile glass coverslips placed in each well and allowed to adhere to the cell culture surface for at least 24 hours. Then the cells were pre-treated with the different galectin-3 inhibitors at different concentrations (or DMSO as control) for 15 minutes or 24 hours followed by addition of the lysosomal damaging peptide GPN[42] and incubated another 13 minutes, with the inhibitors still present. The 13-minute incubation with GPN and 15-minute pre-incubation with inhibitors were done in DMEM/Ham’s F12 medium with 15 mM HEPES buffer (without serum), whereas the 24-hour incubation with inhibitors were performed in fully supplemented DMEM/Ham’s F12 medium (as described under Cell culture).
After treatment with GPN, the cells were fixed in 3.7% (v/v) formaldehyde in phosphate-buffered saline (PBS) for 15 minutes, permeabilized and blocked using 1% (v/v) TWEEN 20 and 5% (w/v) BSA in PBS for 30 minutes, then incubated with primary and secondary antibodies for one hour each (washed with PBS in between). Primary and secondary antibodies for galectin-3 staining were a rat anti-mouse galectin-3 IgG antibody[50],[51] […] All antibodies were diluted in 0.05% TWEEN 20 and 5% BSA in PBS. […] The coverslips were mounted on glass slides using Mowiol® 4–88 and left at 8 °C overnight before further examination. For imaging of the cells, a LSM-510 confocal laser scanning microscope (Carl Zeiss Microscopy GmbH, Oberkochen, Germany), equipped with a Hamamatsu R6357 photomultiplier (Hamamatsu Photonics K.K., Hamamatsu, Japan), was used. […] Maximum intensity projections of each picture obtained were analyzed with ImageJ 1.47 v (Rasband, W.S., ImageJ, U. S. National Institutes of Health, Bethesda, Maryland, USA) to quantify the number of galectin-3 dots and the number of nuclei in each picture. The quantification of particles (i.e. galectin-3 puncta/nucleus) was carried out using batch processing in the software, where a single macro (including parameters such as image thresholds, particle size and circularity) was used for all images obtained from a single experiment, this to reduce user bias and time consumption.

[2] = Caco-2 permeability assay; conditions: human, Caco-2, pH 7.4
[3] = tested on: HCC1937 cells; assay: MTT cell viability assay, HCC1937; type: cell-based; conditions: HCC1937, 72 hours, 0.04–40 µM for 1 and 2, 0.04–20 µM for 3
Experimental: (§1) The MTT (3-[4,5-dimethylthiazol-2-yl]−2,5-diphenyltetrazolium bromide) assays were performed as previously described. […] The cells were incubated for 24 hours before addition of galectin-3 inhibitors. The inhibitors were diluted in PBS from their respective stock solution in DMSO (see Galectin-3 inhibitors) and used at final concentrations ranging from 0.04 to 40 μM. DMSO was adjusted to make the final DMSO concentration 0.2% for all inhibitor concentrations, including the control sample (no inhibitor). After 72 hours of treatment, 20 μl of 5 mg/ml MTT solution (in PBS) was added to each well and incubation continued for 1 hour at 37 °C. Thereafter, the MTT containing medium was removed and 100 μl of DMSO was added per well and the plates swirled gently for 10 minutes to dissolve the cells and the purple formazan product precipitate. Absorbance was monitored at 540 nm using a Labsystems iEMS Reader MF (Labsystems Oy, Helsinki, Finland) and the software DeltaSoft II v.4.14 (Biometallics Inc., Princeton, NJ, USA).

[4] = molecular target: T1, galectin-3; assay: Fluorescence anisotropy (FA) competitive assay, affinity for galectin-3; type: binding; set-up: made in house; host or cells: E. coli BL21 Star (DE3)
Description: A FA assay was used to determine the affinity of recombinant human galectin-3 and the three inhibitors in solution. The use of the FA assay for this purpose has previously been described in detail by Sörme et al.[49]. In short, increasing concentrations of galectins were first titered against a fixed concentration of the fluorescent saccharide probe 3,3′-dideoxy-3-[4-(fluorescein-5-yl-carbonylaminomethyl)-1H-1,2,3-triazol-1-yl]−3′-[4-(3-fluorophenyl)-1H-1,2,3-triazol-1-yl]-1,1′-sulfanediyl-di-β-D-galactopyranoside (4 nM) (described in Peterson et al.[28]), to obtain binding curves in which the anisotropy value increases from a value for probe free in solution (A0) to a value where all probe molecules are bound to galectin-3 (Amax). Binding curves were constructed for each test condition used in this study (i.e. different buffer, temperature and pH, see below) (Fig. S4). To establish the dissociation constant (Kd) values between the inhibitors and galectin-3, a competitive variant of the FA assay was utilized. In this study, increasing concentrations of the inhibitors were titered against fixed concentrations of galectin-3 and probe. By measuring the anisotropy values for the different inhibitor concentrations, together with the values for Amax and A0, the Kd values could be calculated according to the equations presented in Sörme et al.[49].
The experiments were either performed in PBS (pH 7.2), in 50 mM phosphate buffer with 100 mM NaCl (pH 6, 7, or 8), or in 50 mM acetate buffer with 100 mM NaCl (pH 5). All buffers were supplemented with 0.1 µM BSA (to not lose any protein due to absorbance to plate surfaces). For the experiments performed in PBS (pH 7.2), a concentration of 20 nM galectin-3 was used (at room temperature and 4 °C). For the experiments done in phosphate/acetate buffer, galectin-3 was used at concentrations of 400 nM (pH 5), 100 nM (pH 6), or 50 nM (pH 7 and 8).
The emitted light from the fluorescent saccharide probes was measured using a PheraStarFS plate reader and PHERAstar Mars version 2.10 R3 software (BMG, Offenburg, Germany). […] The anisotropy values for each data point were read in duplicate wells of 96-well plates (at a total volume of 140 µl) 30 minutes after the addition of all solutions (for equilibrium to arise).

[5] = tested on: MCF-7 cells; assay: MTT cell viability assay, MCF-7; type: cell-based; conditions: MCF-7, 72 hours, 0.04–40 µM for 1 and 2, 0.04–20 µM for 3
Experimental: as §1

[6] = tested on: obese mice; set-up: method as in PMID 27814523; conditions: type 2 diabetes study; cited from earlier work
[7] = tested on: galectin-1; set-up: method as in Delaine et al., Salameh et al., Peterson et al.; conditions: lower compared to galectin-3; ref Delaine et al., Salameh et al., Peterson et al.; cited from earlier work
[8] = molecular target: T1, galectin-3; assay: Inhibition of fluorescein-tagged galectin-3 binding to the cell surface of CHO cells (flow cytometry); type: cell-based; set-up: made in house; host or cells: E. coli BL21 Star (DE3); conditions: 0.5 µM fluorescein-tagged galectin-3, 4 °C, 1 hour
[9] = tested on: JIMT-1 cells; assay: MTT cell viability assay, JIMT-1; type: cell-based; conditions: JIMT-1, 72 hours, 0.04–40 µM for 1 and 2, 0.04–20 µM for 3
Experimental: as §1

T1 sequence (P17931 whole entry): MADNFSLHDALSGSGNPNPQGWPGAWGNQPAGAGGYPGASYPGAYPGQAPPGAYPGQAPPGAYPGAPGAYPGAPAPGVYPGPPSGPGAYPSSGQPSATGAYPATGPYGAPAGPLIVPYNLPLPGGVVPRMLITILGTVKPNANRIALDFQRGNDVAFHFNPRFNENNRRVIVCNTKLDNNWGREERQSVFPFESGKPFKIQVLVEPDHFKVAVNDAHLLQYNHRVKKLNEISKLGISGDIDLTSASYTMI

mean number of galectin-3 puncta/nucleus ([1]; JIMT-1 cells, 0.3 mM GPN for 13 minutes, n = 92) | Papp A→B [2] [×10⁻⁶ cm/s] | Papp B→A [2] [×10⁻⁶ cm/s] | Kd ([4]; as in Fig. 1b, restated in legend of Fig. S1, read-out: Kd value for galectin-3) [nM] | Kd ([4]; galectin-3 CRD, FA assay, PBS pH 7.2, room temperature, read-out: Kd value for galectin-3) | Kd ([4]; pH 5, acetate buffer with NaCl, read-out: Kd value for galectin-3 at pH 5) [nM] | fold lower affinity for galectin-3 compared to 1 ([4]; ratio of Kd values) [fold] | IC50 [8] [nM] | IC50 ([1]; JIMT-1 cells, 15 minutes pre-incubation, read-out: IC50, inhibition of GPN-induced galectin-3 accumulation) [nM] | Structure (SMILES) | cell viability (MTT) [3] | cell viability (MTT) [5] | glucose tolerance [6] | insulin resistance [6] | affinity for galectin-1 [7] | inhibition of galectin-3 accumulation (extent) ([1]; 15 minutes pre-treatment, high concentrations 50–100 µM) | inhibition of galectin-3 accumulation (extent) ([1]; 24 hours pre-treatment, up to 10 µM) | cell viability (MTT) [9]
4.81 ± 0.23 | – | – | – | – | – | – | – | – | NCC(=O)N[C@@H](Cc1ccccc1)C(=O)Nc1ccc2ccccc2c1 [GPN, glycyl-L-phenylalanine 2-naphthylamide, reference compound] (H-Gly-Phe-βNA) | – | – | – | – | – | – | – | –
– | 14.7 | 16.2 | – | – | – | – | – | – | OC[C@H]1O[C@H](Sc2ccc(Cl)c(Cl)c2)[C@H](O)[C@@H](n2cc(-c3cc(F)c(F)c(F)c3)nn2)[C@H]1O [compound 2] | – | – | – | – | – | – | – | –
– | < 0.3 | < 0.07 | 35.8 | 36 nM and 35.8 nM | 778 | > 10 | 10000 | ~10000 | CCCCNC(=O)c1cn(C2C(O)C(CO)OC(SC3OC(CO)C(O)C(n4cc(C(=O)NCCCC)nn4)C3O)C2O)nn1 (stereo not shown) [compound 3] | no apparent change in cell viability | no apparent change in cell viability | improved glucose tolerance | decreased insulin resistance | high affinity | complete inhibition of galectin-3 accumulation could not be reached | poor inhibitor of galectin-3 accumulation | no apparent change in cell viability
